In patent US20130259830A1, “CRTH2 MODULATORS” (Ironwood Pharmaceuticals, Inc., priority 2010, published 2013):

Experiments:
CRTH2 [1] = target: T1, CRTH2 (Homo sapiens, UniProt Q9Y5Y4); test: Human whole blood CD11b antagonist assay (CD11b expression in eosinophils challenged with 15-R-methyl-PGD2); type: cell-based; settings: 37° C. 10 minutes preincubation, agonist 15R-Methyl-PGD2 10 nM, eosinophils gated by flow cytometry
T1 construct: endogenous in cells; host or cells: eosinophils in human whole blood
T1 sequence (Q9Y5Y4 1-395): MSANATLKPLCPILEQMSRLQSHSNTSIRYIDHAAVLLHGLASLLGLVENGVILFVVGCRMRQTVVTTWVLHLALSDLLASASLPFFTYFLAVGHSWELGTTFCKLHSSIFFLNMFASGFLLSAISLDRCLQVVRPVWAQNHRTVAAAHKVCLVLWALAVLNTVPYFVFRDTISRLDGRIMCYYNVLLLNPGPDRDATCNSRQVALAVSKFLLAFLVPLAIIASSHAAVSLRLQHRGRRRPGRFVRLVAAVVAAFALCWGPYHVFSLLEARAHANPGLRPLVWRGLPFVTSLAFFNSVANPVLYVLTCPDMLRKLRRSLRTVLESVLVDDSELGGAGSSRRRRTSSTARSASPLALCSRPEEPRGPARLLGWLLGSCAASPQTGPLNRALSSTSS
Procedure: Human Whole Blood […] Antagonist Assay (Modified from Nicholson, et al. Pulmonary Pharmacology and Therapeutics: 20 (2007); 52-59).
The potential CRTH2 antagonist activity of certain compounds was tested in human whole blood using an assay that tests the ability of the compounds to block the CD11b expression in eosinophils by 15-R-methyl-PGD2. A CRTH2 antagonist should block CD11b expression by subsequently added 15-Methyl-PGD2. Human whole blood (200 μL) was incubated at 37° C. for 10 minutes in the presence of various concentrations of test compounds before being challenged with the agonist 1-5R-Methyl-PGD2 (10 nM). Reactions were terminated by the addition of ice-cold PBS+0.5% BSA+2 mM EDTA (1 mL) and centrifugation (300×g for 5 minutes at 4° C.) Cells were then incubated at 4° C. for 10 min in the presence of human IgG. Cells were then incubated for 30-45 min with a mixture of PE-Cy5-labeled mouse anti-human CD16 (10 ul; BD Biosciences) and FITC-labeled mouse anti-human CD11b (10 μL; Beckman Coulter.) After rinsing (1 mL ice-cold PBS+0.5% BSA+2 mM EDTA), red blood cells were lysed by the addition of 1 mL ice-cold H2O to the cell pellet for 30 sec-1 min immediately followed by the addition of 3.5% NaCl (300 μL.) Cells were then rinsed (2×−1 ml ice cold PBS+0.5% BSA+2m MEDTA) and fixed in PBS containing 1% formaldehyde. The distribution of fluorescence intensities was measured by flow cytometry. Eosinophils were gated out on the basis of their granularity (high side scatter) and absence of CD-16. CD11b was then measured on this eosinophil population on the basis of fluorescence due to FITC.

CRTH2 [2] = target: T1, CRTH2; test: DPBS CD11b antagonist assay (CD11b expression in eosinophils challenged with 15R-Methyl-PGD2); type: cell-based; settings: polymorphonuclear cells in PBS with CaCl2/MgCl2; agonist 15R-Methyl-PGD2 10 nM; eosinophils gated by flow cytometry
Procedure: DPBS CD111b Antagonist Assay.
The potential CRTH2 antagonist, activity of certain compounds was tested using a CD11b expression assay using essentially the method described by Monneret et al. (J Pharmacol Exp Ther 304:349-55, 2003). Briefly, polymorphonuclear cells (0.5 ml; 10^6/ml cells) in PBS containing 0.9 mM CaCl2 and 0.5 mM MgCl2) were preincubated with various concentrations of test compounds at room temperature for 10 minutes before they were challenged with the agonist 15R-Methyl-PGD2 (10 nM). The incubations were terminated by the addition of ice-cold FACSFlow (BD Biosciences; Cat#342003) and centrifugation (400 g for 5 minutes at 4° C.). The cells were then incubated for 30 minutes at 4° C. with a mixture of PE-labeled mouse anti-human VLA-4 (5 μl; BD Biosciences) and FITC-labeled mouse anti-human CD11b (10 μl; Beckman Coulter). The cells were then incubated with Optilyse C (0.25 ml; Beckman Coulter) for 15 minutes, centrifuged, and then fixed in PBS (0.4 ml; calcium and magnesium free) containing 1% formaldehyde. The distribution of fluorescence intensities among 60,000 cells was measured by flow cytometry. Eosinophils were gated out on the basis of their granularity (high side scatter) and labeling with VLA-4 (PE fluorescence). CD11b was then measured in the eosinophil region on the basis of fluorescence due to FITC. All data were corrected for the value obtained for the corresponding isotope control antibody.

| SMILES | IC50 (CRTH2 [1]) | IC50 (CRTH2 [2]) |
| --- | --- | --- |
| Cc1ccc(S(=O)(=O)N(C)c2cccc(Cc3c4c(n(CC(=O)O)c3C)CC(C)(C)CC4=O)c2)cc1 [Compound I-45, 2-(3-(3-(N,4-Dimethylphenylsulfonamido)benzyl)-2,6,6-trimethyl-4-oxo-4,5,6,7-tetrahydro-1H-indol-1-yl)acetic acid] | > 3000 nM | 100 to 500 nM |
| Cc1c(Cc2ccccc2NS(=O)(=O)c2ccc(OCc3ccccc3)cc2)c2c(n1CC(=O)O)CC(C)(C)CC2=O [Compound I-46, 2-(3-(2-(4-(Benzyloxy)phenylsulfonamido)benzyl)-2,6,6-trimethyl-4-oxo-4,5,6,7-tetrahydro-1H-indol-1-yl)acetic acid] | 5 to 20 nM | < 1 nM |
| Cc1c(Cc2ccccc2NS(=O)(=O)N2CCCC2)c2c(n1CC(=O)O)CC(C)(C)CC2=O [Compound I-47] | 20 to 100 nM | 5 to 20 nM |
| Cc1c(Cc2ccccc2NS(=O)(=O)c2ccc(O)cc2)c2c(n1CC(=O)O)CC(C)(C)CC2=O [Compound I-48, 2-(3-(2-(4-Hydroxyphenylsulfonamido)benzyl)-2,6,6-trimethyl-4-oxo-4,5,6,7-tetrahydro-1H-indol-1-yl)acetic acid] | 1 to 5 nM | < 1 nM |
| Cc1c(Cc2ccccc2NS(=O)(=O)N2CCOCC2)c2c(n1CC(=O)O)CC(C)(C)CC2=O [Compound I-49] | 20 to 100 nM | 1 to 5 nM |
| Cc1c(Cc2ccccc2S(=O)(=O)N2CCOCC2)c2c(n1CC(=O)O)CCNC2=O [Compound I-50, 2-(2-Methyl-3-(2-(morpholinosulfonyl)benzyl)-4-oxo-4,5,6,7-tetrahydro-1H-pyrrolo[3,2-c]pyridin-1-yl)acetic acid] | 1 to 5 nM | < 1 nM |
| Cc1c(Cc2cccc(N(C)S(=O)(=O)N3CCCC3)c2)c2c(n1CC(=O)O)CC(C)(C)CC2=O [Compound I-51, 2-(2,6,6-Trimethyl-3-(3-(N-methylpyrrolidine-1-sulfonamido)benzyl)-4-oxo-4,5,6,7-tetrahydro-1H-indol-1-yl)acetic acid] | > 3000 nM | 100 to 500 nM |
| Cc1c(Sc2ccccc2NS(=O)(=O)c2ccccc2)c2c(n1CC(=O)O)CC(C)(C)CC2 [Compound I-52, 2-(2,6,6-trimethyl-3-(2-(phenylsulfonamido)phenylthio)-4,5,6,7-tetrahydro-1H-indol-1-yl)acetic acid] | 5 to 20 nM | < 1 nM |
